Measurements reported in PubChem BioAssay (NCI).
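48-hour exposure; five concentrations; linearly interpolated endpoints. GI50 = concentration required for 50% inhibition of growth. TGI: concentration producing complete growth inhibition.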

Assays:
Test in all cases: inhibition of tumour cell growth, NCI panel, 48 h
UACC-257 melanoma = tested on: UACC-257 melanoma
RXF 393 renal = tested on: RXF 393 renal
MDA-MB-435 = tested on: MDA-MB-435
PC-3 prostate = tested on: PC-3 prostate
COLO 205 colon = tested on: COLO 205 colon
OVCAR-4 ovarian = tested on: OVCAR-4 ovarian
SN12C renal = tested on: SN12C renal
HOP-92 NSCLC = tested on: HOP-92 NSCLC
HS 578T breast = tested on: HS 578T breast
U251 CNS = tested on: U251 CNS
SR leukemia = tested on: SR leukemia
HT29 colon = tested on: HT29 colon
TK-10 renal = tested on: TK-10 renal
BT-549 breast = tested on: BT-549 breast
SF-295 CNS = tested on: SF-295 CNS
SK-MEL-2 melanoma = tested on: SK-MEL-2 melanoma
NCI-H460 lung = tested on: NCI-H460 lung
786-0 renal = tested on: 786-0 renal
SW-620 colon = tested on: SW-620 colon
SK-MEL-28 melanoma = tested on: SK-MEL-28 melanoma
CAKI-1 renal = tested on: CAKI-1 renal
MCF7 breast = tested on: MCF7 breast
SNB-75 CNS = tested on: SNB-75 CNS
OVCAR-5 ovarian = tested on: OVCAR-5 ovarian
OVCAR-3 ovarian = tested on: OVCAR-3 ovarian
NCI/ADR-RES ovarian = tested on: NCI/ADR-RES ovarian
KM12 colon = tested on: KM12 colon
T-47D breast = tested on: T-47D breast
ACHN renal = tested on: ACHN renal

Work on `CC(=O)O[C@H]1[C@@H]2OC(=O)C(CSc3ccccc3)[C@@H]2C[C@H]2O[C@]2(C)CC/C=C(\C)CCC[C@@H]1C` (stereo partly drawn) yielded a GI50 (UACC-257 melanoma) of 5.07 µM, a TGI (UACC-257 melanoma) of 19.2 µM and a GI50 (RXF 393 renal) of 1.88 µM. It also gave a TGI (RXF 393 renal) of 3.79 µM, a GI50 (MDA-MB-435) of 2.12 µM and a TGI (MDA-MB-435) of 5.9 µM. For the same molecule, the GI50 (PC-3 prostate) was 2.53 µM, the TGI (PC-3 prostate) was 11.1 µM and the GI50 (COLO 205 colon) was 1.75 µM. It also gave a TGI (COLO 205 colon) of 3.9 µM, a GI50 (OVCAR-4 ovarian) of 2.98 µM and a TGI (OVCAR-4 ovarian) of 10.9 µM. For the same molecule, the GI50 (SN12C renal) was 3.45 µM, the TGI (SN12C renal) was 14.8 µM and the GI50 (HOP-92 NSCLC) was 1.74 µM. For the same molecule, the TGI (HOP-92 NSCLC) was 5.43 µM, the GI50 (HS 578T breast) was 2.79 µM and the TGI (HS 578T breast) was 10.2 µM. For the same molecule, the GI50 (U251 CNS) was 3.97 µM, the TGI (U251 CNS) was 16.5 µM and the GI50 (SR leukemia) was 1.69 µM. For the same molecule, the TGI (SR leukemia) was greater than 20.1 µM, the GI50 (HT29 colon) was 3.51 µM and the TGI (HT29 colon) was 14.9 µM. It also gave a GI50 (TK-10 renal) of 1.65 µM, a TGI (TK-10 renal) of 3.74 µM and a GI50 (BT-549 breast) of 1.98 µM. For the same molecule, the TGI (BT-549 breast) was 8.84 µM, the GI50 (SF-295 CNS) was 3.73 µM and the TGI (SF-295 CNS) was 34.6 µM. The GI50 (SK-MEL-2 melanoma) was 3.11 µM, the TGI (SK-MEL-2 melanoma) was 8.69 µM and the GI50 (NCI-H460 lung) was 4.4 µM. It also gave a TGI (NCI-H460 lung) of 19.3 µM, a GI50 (786-0 renal) of 2.81 µM and a TGI (786-0 renal) of 8.29 µM. The GI50 (SW-620 colon) was 2.22 µM, the TGI (SW-620 colon) was 4.92 µM and the GI50 (SK-MEL-28 melanoma) was 1.91 µM. It also gave a TGI (SK-MEL-28 melanoma) of 3.93 µM, a GI50 (CAKI-1 renal) of 1.69 µM and a TGI (CAKI-1 renal) of 6.34 µM. It also gave a GI50 (MCF7 breast) of 2.62 µM, a TGI (MCF7 breast) of 12 µM and a GI50 (SNB-75 CNS) of 2.98 µM. It also gave a TGI (SNB-75 CNS) of 11.6 µM, a GI50 (OVCAR-5 ovarian) of 12.4 µM and a TGI (OVCAR-5 ovarian) of 33.7 µM. It also gave a GI50 (OVCAR-3 ovarian) of 1.87 µM, a TGI (OVCAR-3 ovarian) of 4.11 µM and a GI50 (NCI/ADR-RES ovarian) of 2.99 µM. The TGI (NCI/ADR-RES ovarian) was 32 µM, the GI50 (KM12 colon) was 3.58 µM and the TGI (KM12 colon) was 14 µM. The GI50 (T-47D breast) was 2.43 µM, the TGI (T-47D breast) was 12.6 µM and the GI50 (ACHN renal) was 1.8 µM. It also gave a TGI (ACHN renal) of 3.82 µM.
